Columns and labels:
[1] = biological target: T1, human CYP1A1 (Homo sapiens, UniProt P04798); experiment: Substrate metabolic activity on immobilized P450/oxygen sensor vertically integrated chip (fluorescence response of oxygen sensor); type: in vitro ADME; conditions: 0.5 mM chlortoluron
T1 construct: made in house; host or cells: E. coli DH5alpha, membrane fraction
T1 sequence (P04798 1-512): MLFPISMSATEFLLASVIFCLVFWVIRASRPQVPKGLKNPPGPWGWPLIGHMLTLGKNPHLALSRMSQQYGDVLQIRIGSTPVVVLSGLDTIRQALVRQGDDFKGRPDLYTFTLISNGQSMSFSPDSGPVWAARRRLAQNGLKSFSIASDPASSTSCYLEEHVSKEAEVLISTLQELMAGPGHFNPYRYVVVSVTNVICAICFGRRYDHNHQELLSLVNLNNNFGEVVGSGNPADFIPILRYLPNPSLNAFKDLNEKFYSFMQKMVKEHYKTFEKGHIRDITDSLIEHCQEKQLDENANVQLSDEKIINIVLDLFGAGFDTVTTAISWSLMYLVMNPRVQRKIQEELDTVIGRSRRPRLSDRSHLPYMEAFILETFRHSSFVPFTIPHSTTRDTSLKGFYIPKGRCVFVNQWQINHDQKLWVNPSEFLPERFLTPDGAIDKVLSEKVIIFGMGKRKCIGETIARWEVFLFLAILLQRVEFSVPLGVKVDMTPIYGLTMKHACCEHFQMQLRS
Experimental: A ruthenium complex (Ru(dpp)3Cl2) doped sol solution was prepared as described in Anal. Chem. 75 (2003) 2407-2413 with small modifications as follows. TEOS (0.29 mL) was mixed with 0.612 mL of octyl-triEOS, 0.625 mL of ethanol, and 0.2 mL of 0.1 M HCl by stirring for 1 hour at room temperature. Then, 1.725 mL of ethanol was added to the solution to dilute the sol in order to improve the quality of the oxygen sensing film to be ultimately formed. The solution was further stirred for 1 hour. To prepare an Ru(dpp)3Cl2 doped sol, 100 μL of 2 mM Ru(dpp)3Cl2 in ethanol was mixed with 300 μL of the above-mentioned sol solution. This solution was capped and stirred for 30 min, and 10 μL thereof was pipetted into each well of the microplate. The microplate was stored in the dark at room temperature for gelling and aging for 6 days. In order to increase the hydrophilicity of the surface of the oxygen sensor to improve the attachment with hydrogel, the surface of the microarrays was modified with poly (vinyl acetate) (PVAC).
Agarose was dissolved in deionized water to form a 1.3% (w/w) solution at 60° C. This solution was cooled to about 38° C. […] The microarrays were kept in a refrigerator at 4° C. until use.
TEOS sol was prepared by mixing 0.5 mL of TEOS, 0.25 mL of deionized water, and 12.5 μL of 0.1 M HCl and stirring for 3 hours to form a homogeneous sol. The sol was diluted four times with deionized water. […]
In order to measure the substrate metabolic activities using an immobilized P450/oxygen sensor vertically integrated chip (i.e., a chip comprising an immobilized P450 and an oxygen sensor vertically integrated therein), a study was conducted using immobilized human CYP1A1 as the P450 and chlortoluron (a herbicide) as a substrate. […] After the addition of the substrate solution into the microarrays, the microplate was quickly placed onto the platform of a microplate reader for the fluorescence measurement. Fluorescence intensity was recorded every 5 min for 3 hours.

[2] = biological target: T1, human CYP1A1; experiment: Competitive assay between fluorogenic substrate (7-ER) and non-fluorogenic substrate using caged-G6P; type: biochemical; conditions: benzopyrene 0.1 and 1 μM; 7-ER 0.1 to 1.5 μM
Experimental: A competitive assay between a fluorogenic substrate (7-ER) and a non-fluorogenic substrate (benzopyrene) was conducted using caged-G6P. An aqueous solution obtained by mixing the following components was used as the reaction liquid: 50 μL of 1 M potassium phosphate buffer solution, 30 μL of 5 mM caged-G6P, 2.89 μL of 69.3 U/mL glucose-6-phosphate […], 15 μL of 100 mM magnesium chloride, 1 μL of 5 mM NADP aqueous solution, 10.25 μL of P450 membrane fractions (human CYP1A1), 5 μL of 0.1 M dithiothreitol, and 379.61 μL of ultrapure water. The 7-ER concentration was varied from 0.1 μM to 1.5 μM. The benzopyrene concentrations were 0.1 μM and 1 μM. After UV light irradiation, incubation was performed for 30 minutes to carry out the P450 enzymatic reaction. Thereafter, 25 μL of 30% trichloroacetic acid was added thereto to terminate the enzymatic reaction. By adding 500 μL of chloroform to the reaction liquid and stirring the mixture for 1 minute, the […] (7HR) generated by the reaction was extracted in chloroform. […] After centrifuging for 1 minute, the […] was transferred to a cuvette, and the fluorescence spectra thereof were measured under the following conditions. Excitation wavelength: 366 nm, fluorescence wavelength: 380 to 600 nm. The maximum fluorescence was used to quantify the 7HR. […]

[3] = biological target: T2, CYP3A5 (Homo sapiens, UniProt P20815); type: in vitro ADME
T2 construct: made in house; host or cells: E. coli membrane fraction (inferred from the pCW negative control and the general expression paragraph)
Experimental: Using a 96-well microplate, the activity of various human P450 molecular species in oxygen sensor/immobilized P450 toward capsaicin was evaluated. The response to a solution with a substrate was compared to the response to a solution without a substrate and the activity of each molecular species was standardized. CYP2C9, CYP1A2, CYP2D6, CYP3A4, CYP2B6, CYP2C19(1A,1B), CYP2E1, CYP1A1, CYP2C8, CYP2W1, CYP4X1, CYP17A1, CYP27A1, CYP51A1, CYP2A6, CYP2A13, CYP1B1, CYP2C18, CYP2J2, CYP3A5, CYP2R1 and CYP2B6 were used as the P450. Furthermore, a membrane fraction (pCW) derived from E. coli was used as a negative control without human P450. […] The longitudinal axis of FIG. 11 indicates the value obtained by dividing the value of the response with a substrate by the value of the response without a substrate (background oxygen consumption) and standardizing the obtained value. As is clear from the figure, various molecular species show activity toward each compound. […] This also indicates the possibility that activities of human P450 toward pharmaceutical compounds and like compounds can be detected in a parallel manner.

T2 sequence (P20815 whole entry): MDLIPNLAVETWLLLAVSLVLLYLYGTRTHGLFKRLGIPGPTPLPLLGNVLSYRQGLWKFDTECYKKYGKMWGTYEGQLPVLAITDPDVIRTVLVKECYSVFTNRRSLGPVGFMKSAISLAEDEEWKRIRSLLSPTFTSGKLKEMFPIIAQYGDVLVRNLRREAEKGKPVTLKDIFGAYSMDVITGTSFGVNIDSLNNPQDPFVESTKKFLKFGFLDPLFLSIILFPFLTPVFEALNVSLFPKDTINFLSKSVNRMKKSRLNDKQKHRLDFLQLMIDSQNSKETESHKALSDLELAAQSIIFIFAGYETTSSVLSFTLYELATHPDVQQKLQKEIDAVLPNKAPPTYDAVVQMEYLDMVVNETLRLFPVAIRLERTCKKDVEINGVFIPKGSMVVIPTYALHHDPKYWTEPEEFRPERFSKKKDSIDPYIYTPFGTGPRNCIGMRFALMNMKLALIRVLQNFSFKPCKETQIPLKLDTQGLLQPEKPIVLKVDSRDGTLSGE

Cc1ccc(NC(=O)N(C)C)cc1Cl [chlortoluron]
change in fluorescence intensity of the oxygen sensing layer (oxygen consumption due to metabolic reaction) ([1]; P450 encapsulated in Ludox silica gel): only a limited increase | change in fluorescence intensity of the oxygen sensing layer (oxygen consumption due to metabolic reaction) ([1]; P450 encapsulated in TEOS silica gel): no significant fluorescence increase | change in fluorescence intensity of the oxygen sensing layer (oxygen consumption due to metabolic reaction) ([1]; P450 encapsulated in agarose gel, versus NADPH solution without substrate): significantly increased

c1ccc2c(c1)c1cccc3ccc4cccc2c4c31 [benzopyrene]
mode of inhibition of 7-ER metabolism (effect on initial reaction velocity) [2]: noncompetitive inhibitor

COc1cc(CNC(=O)CCCC/C=C/C(C)C)ccc1O [capsaicin]
oxygen sensor response normalized by the response toward a solution without a substrate (peak height, FIG. 11) [3]: particularly high

Reference: patent US20120288885A1, “METHOD AND KIT FOR MEASURING ENZYMATIC ACTIVITIES OF VARIOUS CYTOCHROME P450 MOLECULE SPECIES COMPREHENSIVELY AND WITH HIGH EFFICIENCY” (NATIONAL INSTITUTE OF ADVANCED INDUSTRIAL SCIENCE AND …, priority 2009, published 2012)
